Assay results as given in patent publication US11510993B2, “Antibody drug conjugate for anti-inflammatory applications” (Merck Sharp & Dohme Corp., priority 2015, dated 2022).
Where two headings read alike, the source gives them in different places.

Key:
[1] = In vitro stability of drug-linkers in rat liver lysosomal lysate (parent and released dexamethasone, LC-MS/MS); settings: for rate of dexamethasone release in rat lysosomal extract (in words): compared with 3-4, 5-3 releasing faster than 4-3
Protocol: Rat Liver lysosomes were available commercially with a pool of 6 animals. All linker compounds were solubilized in DMSO to form each 10 mM stock solution. Dosing solution for each linker was prepared by serial dilution of each stock solution using 1:3 acetonitrile: water. All solutions were kept on ice during the experiment.
Rat lysosomes were pre-warmed in a 37° C. water bath in an appropriate volume to collect samples over a time course from 0 minutes through 6 hours. Incubating lysosomes were mixed well just prior to sampling to give a homogenous mixture. Aliquots of lysosomes were removed at appropriate time points, added to cold stopping solution, which was methanol containing an appropriate internal standard, and mixed rigorously. The samples were centrifuged at 4000 RPM for 10 minutes after which equal volumes of supernatant were diluted with cold deionized water. The samples were ready for analysis.
(§3) A Thermo LX-2 ultra-performance liquid chromatography system coupled with a Sciex API5000 triple quadrupole mass spectrometer was used for the analysis. The payload and drug-linkers were retained and separated by a C18 column and detected by the mass spectrometer. […] Samples were kept in cold stack set at 5° C.

[2] = In vitro stability of drug-linkers in human whole blood (parent and released dexamethasone, LC-MS/MS)
Protocol: General Experimental Procedure Human Blood Incubation Human blood was collected the morning of the experiment from at least 3 individuals using K2EDTA as the anticoagulant. An equal volume from each individual was combined for use in the experiment. The experiment started no more than 2 hours after the blood collection. All drug-linker conjugates were solubilized in DMSO to form each 10 mM stock solution. Dosing solution for each linker was prepared by serial dilution of each stock solution using 1:3 acetonitrile:water. All solutions were kept on ice during the experiment.
Human blood was pre-warmed in a 37° C. water bath in an appropriate volume to collect samples over a time course from 0 through 6 hours. Incubating blood was mixed well just prior to sampling to give a homogenous mixture. Aliquots of blood were removed at appropriate time points, added to cold stopping solution, which was methanol containing an appropriate internal standard, and mixed rigorously. The samples were centrifuged at 4000 RPM for 10 minutes after which equal volumes of the supernatant fractions were diluted with cold deionized water. The samples were then ready for analysis.
as §3

[3] = Solubility of drug-linkers in 20% MeCN/H2O; type: physicochemical; settings: tested at a concentration of 10 mg/mL
Protocol: The solubility of exemplary drug-linker conjugates in aqueous solutions was evaluated. Linkers utilized in drug conjugates may have aqueous solubility to enable conjugation in aqueous media amenable to protein solubilization. Furthermore, linkers with aqueous solubility are considered hydrophilic, and may confer to the drug conjugate a reduced propensity to aggregate relative to standard hydrophobic linkers in the literature. The following exemplary drug-linkers were tested in an aqueous solution comprising 20% acetonitrile (MeCN/H2O) for solubility at a concentration of 10 mg/mL.

[4] = test system: GILZ mRNA in HUT-78 cells (CD74 positive T lymphoma); experiment: GILZ mRNA induction in HUT-78 cells (RT-PCR); type: cell-based, human; settings: 18 hours; for Emax: GILZ mRNA relative fold of change; for EC50: Homo sapiens, HuT78, GILZ mRNA, free drug
Protocol: (§1) In vitro activity and targeted delivery of ADC 12-4, 12-5, 12-6, 12-7, 12-9, 12-10, the isotype-matched negative controls 12-11, 12-12, and naked anti-hCD74 (LL1) control were assessed in HUT-78 an SUDHL-6 cells (CD74 positive T and B lymphoma cell lines respectively) as well as 786-O cells (a CD74 negative renal carcinoma cell line). The cells were treated with individual ADC, anti-hCD74 antibody, or budesonide (Bud) for 18 hours and then glucocorticoid-induced leucine zipper (GILZ) mRNA, a glucocorticoid-regulated gene, was measured by RT-PCR. […] (The activity at the highest concentration in 786-O cells may be due to impurity of the sample or possible low CD74 expression in cells.). The overall activity profile of the ADC is consistent with targeted delivery of a payload (e.g. dexamethasone or budesonide) that is dependent on the binding and internalization of the antibody with its antigen on the cell surface, and on the efficiency of linker cleavage inside the cells.
(§2) The quantitation of Glucocorticoid-induced leucine zipper (GILZ) mRNA expression was determined by real time-PCR. In brief, actively growing cells were harvested and then resuspended in the assay buffer (HBSS plus 2% FBS) at concentration of 1.1×10^6/ml. 5×10^4 cells/well in 45 μl volume were plated to Greiner 384 well v-bottom reagent plates (Ref #781280). […] After 18 hour incubation, the cells were lysed, and the lysates were used for cDNA synthesis and real-time PCR, according to manufacturer's instructions in TaqMan Gene Expression Cells-to-CT™ Kit (Invitrogen, Carlsbad, Calif.). Specific primers against human GILZ and GAPDH were purchased from the Life Technologies (Invitrogen, Carlsbad, Calif.). Real-time PCR reactions were performed on the Applied Biosystems 7900 HT Fast Real-Time PCR System. Thermal cycling conditions consisted of an initial UDG incubation hold (50° C., 2 min) denaturing and enzyme activation step (95° C., 2 min) followed by 40 cycles of denaturing (95° C., 15 s), annealing and extending (60° C., 1 min). The mRNA levels were normalized to GAPDH (internal control) using the formula Δ threshold cycle (CT)=CT target−CT reference. The differential expression signal were expressed as delta Ct (ΔCt) by subtracting the Ct values of the un-stimulated samples (containing only assay buffer or DMSO vehicle) from those of the stimulated samples and expressed as relative fold of change using the formula: 2^ΔΔCT. The graphs were generated in GraphPad Prism and the EC50 values were calculated with non-linear regression curve fit of the data in GraphPad Prism.

[5] = test system: GILZ mRNA in 786-O cells (CD74 negative renal carcinoma); experiment: GILZ mRNA induction in 786-O cells (RT-PCR); type: cell-based, human; settings: 786-0 cells (CD74(—)), 18 hours; for Emax: GILZ mRNA relative fold of change; for EC50: Homo sapiens, GILZ mRNA, free drug
Protocol: as §1, §2

[6] = test system: GILZ mRNA in SUDHL-6 cells (CD74 positive B lymphoma); experiment: GILZ mRNA induction in SUDHL-6 cells (RT-PCR); type: cell-based, human; settings: 18 hours; for Emax: GILZ mRNA relative fold of change; for EC50: Homo sapiens, SU-DHL-6, GILZ mRNA, free drug
Protocol: as §1, §2

[7] = not given; remark: listed apart in the source
[8] = Matrix spiking (lysosomes pretreated with stopping reagent)

C[C@@H]1C[C@H]2[C@@H]3CCC4=CC(=O)C=C[C@]4(C)[C@@]3(F)[C@@H](O)C[C@]2(C)[C@@]1(O)C(=O)COP(=O)(O)Oc1ccc(NC(=O)COC2C#CCCCCC2)cc1 (stereo partly drawn) [Drug Linker 5-3, 4-(2-(cyclooct-2-yn-1-yloxy)acetamido)phenyl (2-((8S,9R,10S,11S,13S,14S,16R,17R)-9-fluoro-11,17-dihydroxy-10,13,16-trimethyl-3-oxo-6,7,8,9,10,11,12,13,14,15,16,17-dodecahydro-3H-cyclopenta[a]phenanthren-17-yl)-2-oxoethyl) hydrogen phosphate]
Calculated Conc. for each compound in rat lysomal lysate ([1]; 0 m, 37° C.): 1394.08 nM | Calculated Conc. for each compound in rat lysomal lysate ([1]; 5 m, 37° C.): 1295.86 nM | Calculated Conc. for each compound in rat lysomal lysate ([1]; 10 m, 37° C.): 1278.4 nM | Calculated Conc. for each compound in rat lysomal lysate ([1]; 15 m, 37° C.): 1407.73 nM | Calculated Conc. for each compound in rat lysomal lysate ([1]; 30 m, 37° C.): 1175.39 nM | Calculated Conc. for each compound in rat lysomal lysate ([1]; 1 hr, 37° C.): 970.65 nM | Calculated Conc. for each compound in rat lysomal lysate ([1]; 2 hr, 37° C.): 743.45 nM | Calculated Conc. for each compound in rat lysomal lysate ([1]; 3 hr, 37° C.): 500.41 nM | Calculated Conc. for each compound in rat lysomal lysate ([1]; 6 hr, 37° C.): 221.03 nM | Calculated Conc. for each compound in rat lysomal lysate [1, 8]: 2555.29 nM | rate of dexamethasone release in rat lysosomal extract (in words) [1]: more slowly released | Calculated Conc. for each compound in human whole blood ([2]; 0 m, 37° C.): 1299 nM | Calculated Conc. for each compound in human whole blood ([2]; 5 m, 37° C.): 1251 nM | Calculated Conc. for each compound in human whole blood ([2]; 15 m, 37° C.): 1276 nM | Calculated Conc. for each compound in human whole blood ([2]; 30 m, 37° C.): 1111 nM | Calculated Conc. for each compound in human whole blood ([2]; 1 hr, 37° C.): 937 nM | Calculated Conc. for each compound in human whole blood ([2]; 2 hr, 37° C.): 1480 nM | Measured Solubility in 20% MeCN/H2O [3]: >10000 µg/mL

CCCC1O[C@@H]2C[C@H]3[C@@H]4CCC5=CC(=O)C=C[C@]5(C)[C@H]4[C@@H](O)C[C@]3(C)[C@]2(C(=O)CO)O1 (some centres unmarked) [Budesonide, budesonide]
Emax [4]: 9.03 | EC50 [4]: 0.65 nM | Emax [5]: 25.68 | EC50 [5]: 0.58 nM | Emax [6]: 14.33 | EC50 [6]: 2.21 nM

CCC(=O)O[C@]1(C(=O)SCF)[C@H](C)C[C@H]2[C@@H]3C[C@H](F)C4=CC(=O)C=C[C@]4(C)[C@@]3(F)[C@@H](O)C[C@@]21C [Fluticasone Propionate, fluticasone propionate]
Emax [4]: 10.27 | EC50 [4]: 0.45 nM | Emax [5]: 25.38 | EC50 [5]: 0.46 nM | Emax [6]: 15.78 | EC50 [6]: 0.52 nM

C[C@@H]1C[C@H]2[C@@H]3CCC4=CC(=O)C=C[C@]4(C)[C@@]3(F)[C@@H](O)C[C@]2(C)[C@@]1(O)C(=O)CO [Dexamethasone, dexamethasone, reference compound]
Calculated Conc. for each compound in rat lysomal lysate ([1]; 0 m, 37° C.): 1456.4 nM | Calculated Conc. for each compound in rat lysomal lysate ([1]; 5 m, 37° C.): 1851.2 nM | Calculated Conc. for each compound in rat lysomal lysate ([1]; 10 m, 37° C.): 1640.8 nM | Calculated Conc. for each compound in rat lysomal lysate ([1]; 15 m, 37° C.): 1666.7 nM | Calculated Conc. for each compound in rat lysomal lysate ([1]; 30 m, 37° C.): 1602.6 nM | Calculated Conc. for each compound in rat lysomal lysate ([1]; 1 hr, 37° C.): 1576.8 nM | Calculated Conc. for each compound in rat lysomal lysate ([1]; 2 hr, 37° C.): 1681.0 nM | Calculated Conc. for each compound in rat lysomal lysate ([1]; 3 hr, 37° C.): 1689.7 nM | Calculated Conc. for each compound in rat lysomal lysate ([1]; 6 hr, 37° C.): 1689.8 nM | Calculated Conc. for each compound in rat lysomal lysate [1, 8]: 2059.0 nM | Calculated Conc. for each compound in human whole blood ([2]; 0 m, 37° C.): 1687 nM | Calculated Conc. for each compound in human whole blood ([2]; 20 m, 37° C.): 2409 nM | Calculated Conc. for each compound in human whole blood ([2]; 1 hr, 37° C.): 2224 nM | Calculated Conc. for each compound in human whole blood ([2]; 3 hr, 37° C.): 1502 nM | Calculated Conc. for each compound in human whole blood ([2]; 6 hr, 37° C.): 2792 nM | Calculated Conc. for each compound in human whole blood ([2]; Matrix spiking (time 0 sample, blood pretreated with stopping reagent)): 2939 nM

C[C@@H]1C[C@H]2[C@@H]3CCC4=CC(=O)C=C[C@]4(C)[C@@]3(F)[C@@H](O)C[C@]2(C)[C@@]1(O)C(=O)COP(=O)(O)OCCNC(=O)COC1C#CCCCCC1 (stereo partly drawn) [Drug Linker 4-3, 2-(2-(cyclooct-2-yn-1-yloxy)acetamido)ethyl (2-((8S,9R,10S,11S,13S,14S,16R,17R)-9-fluoro-11,17-dihydroxy-10,13,16-trimethyl-3-oxo-6,7,8,9,10,11,12,13,14,15,16,17-dodecahydro-3H-cyclopenta[a]phenanthren-17-yl)-2-oxoethyl) hydrogen phosphate]
rate of dexamethasone release in rat lysosomal extract (in words) [1]: more slowly released | Calculated Conc. for each compound in human whole blood (0 min): 1539 nM | Calculated Conc. for dexamethasone in human whole blood (20 min): 0 nM | Calculated Conc. for each compound in human whole blood (20 min): 1861 nM | Calculated Conc. for dexamethasone in human whole blood (1 h): 0 nM | Calculated Conc. for each compound in human whole blood (1 h): 1619 nM | Calculated Conc. for dexamethasone in human whole blood (3 h): 1 nM | Calculated Conc. for each compound in human whole blood (3 h): 1677 nM | Calculated Conc. for dexamethasone in human whole blood (6 h): 3 nM | Calculated Conc. for each compound in human whole blood (6 h): 2040 nM | Calculated Conc. for dexamethasone rat lysomeal lysate ([7]; 0 min): 0.9 nM | Calculated Conc. for each compound in rat lysomal lysate ([7]; 0 min): 888.8 nM | Calculated Conc. for dexamethasone rat lysomeal lysate ([7]; 5 min): 14.5 nM | Calculated Conc. for each compound in rat lysomal lysate ([7]; 5 min): 1156.1 nM | Calculated Conc. for dexamethasone rat lysomeal lysate ([7]; 10 min): 14.2 nM | Calculated Conc. for each compound in rat lysomal lysate ([7]; 10 min): 983.4 nM | Calculated Conc. for dexamethasone rat lysomeal lysate ([7]; 15 min): 22.3 nM | Calculated Conc. for each compound in rat lysomal lysate ([7]; 15 min): 1032.6 nM | Calculated Conc. for dexamethasone rat lysomeal lysate ([7]; 30 min): 28.9 nM | Calculated Conc. for each compound in rat lysomal lysate ([7]; 30 min): 980.1 nM | Calculated Conc. for dexamethasone rat lysomeal lysate ([7]; 1 h): 41.6 nM | Calculated Conc. for each compound in rat lysomal lysate ([7]; 1 h): 882.4 nM | Calculated Conc. for dexamethasone rat lysomeal lysate ([7]; 2 h): 72.5 nM | Calculated Conc. for each compound in rat lysomal lysate ([7]; 2 h): 880.1 nM | Calculated Conc. for dexamethasone rat lysomeal lysate ([7]; 3 h): 90.2 nM | Calculated Conc. for each compound in rat lysomal lysate ([7]; 3 h): 903.8 nM | Calculated Conc. for dexamethasone rat lysomeal lysate ([7]; 6 h): 141.9 nM | Calculated Conc. for each compound in rat lysomal lysate ([7]; 6 h): 858.9 nM

CD74 Ab: anti-CD74 antibody LL1, HC SEQ ID NO:69, LC SEQ ID NO:73, pAzF at position 121
Emax [4]: 1.34 | Emax [5]: 1.02 | Emax [6]: 1.02
